Data: article PMC10287695, “Non-covalent inhibitors of thioredoxin glutathione reductase with schistosomicidal activity in vivo” (Nature Communications, 2023)
Where “and” joins values, the source holds several entries; their conditions need not be identical. Identical values can stand only once.

System: TGR in newly transformed schistosomula (NTS)
Test: TGR inhibition in NTS with TRFS-Green fluorescent probe;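 note: untreated reference is NTS exposed to TRFS-Green probe alone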
Format: cell-based, S. mansoni
Conditions: NTS
Method: TGR inhibition in NTS was assessed using a fluorescent probe TRFS-Green (Medchemexpress)[43]. NTS prepared as previously described and cultured in M199 supplemented with 5.5 mM D-glucose, penicillin-streptomycin and 5% heat inactivated fetal bovine serum were incubated at 37 °C in a clear bottom flat well plate in a 5% CO2 incubator overnight. […] NTS were further treated with TRFS-Green (10 µM) for additional 4 h and rinsed with M199 medium to remove residual TRFS-Green. Fluorescence images were obtained using Keyence BZ-X800. The quantification of fluorescence intensity upon the uptake of TRFS-Green by NTS was performed by a fluorescent microplate imager (BioTek Cytation3) (excitation, 438 nm; emission, 538 nm) hourly for 5 h and after 24 h.

Structure (SMILES)	TGR inhibition visualized by TRFS-Green, Average (1hr, 5 µM)	TGR inhibition visualized by TRFS-Green, single replicate (1hr, 5 µM)	TGR inhibition visualized by TRFS-Green, Average (1hr, 15 µM)	TGR inhibition visualized by TRFS-Green, single replicate (1hr, 15 µM)	TGR inhibition visualized by TRFS-Green, Average (1hr, 30 µM)	TGR inhibition visualized by TRFS-Green, single replicate (1hr, 30 µM)	TGR inhibition visualized by TRFS-Green, Average (2hr, 5 µM)	TGR inhibition visualized by TRFS-Green, single replicate (2hr, 5 µM)	TGR inhibition visualized by TRFS-Green, Average (2hr, 15 µM)	TGR inhibition visualized by TRFS-Green, single replicate (2hr, 15 µM)	TGR inhibition visualized by TRFS-Green, Average (2hr, 30 µM)	TGR inhibition visualized by TRFS-Green, single replicate (2hr, 30 µM)	TGR inhibition visualized by TRFS-Green, Average (3hr, 5 µM)	TGR inhibition visualized by TRFS-Green, single replicate (3hr, 5 µM)	TGR inhibition visualized by TRFS-Green, Average (3hr, 15 µM)	TGR inhibition visualized by TRFS-Green, single replicate (3hr, 15 µM)	TGR inhibition visualized by TRFS-Green, Average (3hr, 30 µM)	TGR inhibition visualized by TRFS-Green, single replicate (3hr, 30 µM)	TGR inhibition visualized by TRFS-Green, Average (4hr, 5 µM)	TGR inhibition visualized by TRFS-Green, single replicate (4hr, 5 µM)	also measured
Cc1oc(-c2ccc3c(c2)OCO3)nc1CN[C@@H]1C[C@@H]2C[C@H]([C@H]1C)C2(C)C [C1 (8VP70)]	10571.8	10560.7 and 10583	9457	9312 and 9602	9252.5	9204 and 9301	14162	14242 and 14082	13529	13095 and 13963	11887.5	11941 and 11834	23711	23581 and 23841	21817.5	21984 and 21651	16831	16892 and 16770	25462.5	25241 and 25684	TGR inhibition visualized by TRFS-Green, Average (4hr, 15 µM): 21898; TGR inhibition visualized by TRFS-Green, single replicate (4hr, 15 µM): 21795 and 22001; TGR inhibition visualized by TRFS-Green, Average (4hr, 30 µM): 16836.5; TGR inhibition visualized by TRFS-Green, single replicate (4hr, 30 µM): 16939 and 16734; TGR inhibition visualized by TRFS-Green, Average (5hr, 5 µM): 26920; TGR inhibition visualized by TRFS-Green, single replicate (5hr, 5 µM): 26917 and 26923; TGR inhibition visualized by TRFS-Green, Average (5hr, 15 µM): 22092; TGR inhibition visualized by TRFS-Green, single replicate (5hr, 15 µM): 23039 and 21145; TGR inhibition visualized by TRFS-Green, Average (5hr, 30 µM): 16893.5; TGR inhibition visualized by TRFS-Green, single replicate (5hr, 30 µM): 16853 and 16934; TGR inhibition visualized by TRFS-Green, Average (24hr, 5 µM): 28552; TGR inhibition visualized by TRFS-Green, single replicate (24hr, 5 µM): 28103 and 29001; TGR inhibition visualized by TRFS-Green, Average (24hr, 15 µM): 23755.5; TGR inhibition visualized by TRFS-Green, single replicate (24hr, 15 µM): 23599 and 23912; TGR inhibition visualized by TRFS-Green, Average (24hr, 30 µM): 16807; TGR inhibition visualized by TRFS-Green, single replicate (24hr, 30 µM): 16780 and 16834
CCc1ccccc1-c1nc(CN[C@@H]2C[C@@H]3C[C@H]([C@H]2C)C3(C)C)c(C)o1 [C2 (8VP101)]	10460.5	10308 and 10613	10104	10086 and 10122	9753	9694 and 9812	13787	13840 and 13734	11633.5	11622 and 11645	11195	11148 and 11242	19344	19467 and 19221	14723.5	14460 and 14987	13932.5	14033 and 13832	23362.5	23074 and 23651	TGR inhibition visualized by TRFS-Green, Average (4hr, 15 µM): 14824.5; TGR inhibition visualized by TRFS-Green, single replicate (4hr, 15 µM): 14826 and 14823; TGR inhibition visualized by TRFS-Green, Average (4hr, 30 µM): 13941.5; TGR inhibition visualized by TRFS-Green, single replicate (4hr, 30 µM): 13992 and 13891; TGR inhibition visualized by TRFS-Green, Average (5hr, 5 µM): 26593; TGR inhibition visualized by TRFS-Green, single replicate (5hr, 5 µM): 26274 and 26912; TGR inhibition visualized by TRFS-Green, Average (5hr, 15 µM): 16217; TGR inhibition visualized by TRFS-Green, single replicate (5hr, 15 µM): 16278 and 16156; TGR inhibition visualized by TRFS-Green, Average (5hr, 30 µM): 14810; TGR inhibition visualized by TRFS-Green, single replicate (5hr, 30 µM): 14697 and 14923; TGR inhibition visualized by TRFS-Green, Average (24hr, 5 µM): 29329.8; TGR inhibition visualized by TRFS-Green, single replicate (24hr, 5 µM): 29329.8; TGR inhibition visualized by TRFS-Green, Average (24hr, 15 µM): 17780.7; TGR inhibition visualized by TRFS-Green, single replicate (24hr, 15 µM): 17780.7; TGR inhibition visualized by TRFS-Green, Average (24hr, 30 µM): 15410.9; TGR inhibition visualized by TRFS-Green, single replicate (24hr, 30 µM): 15410.9
Cc1oc(C2CCCCC2)nc1CN[C@@H]1C[C@@H]2C[C@H]([C@H]1C)C2(C)C [C4 (8VP121-1)]	12224.5	12022 and 12427	11617.5	11812 and 11423	10356	10371 and 10341	19189	19355 and 19023	17814.5	17877 and 17752	13785	13959 and 13611	24561	24110 and 25012	22452	22972 and 21932	19172	19108 and 19236	26229	26469 and 25989	TGR inhibition visualized by TRFS-Green, Average (4hr, 15 µM): 23381.5; TGR inhibition visualized by TRFS-Green, single replicate (4hr, 15 µM): 23782 and 22981; TGR inhibition visualized by TRFS-Green, Average (4hr, 30 µM): 19196; TGR inhibition visualized by TRFS-Green, single replicate (4hr, 30 µM): 19157 and 19235; TGR inhibition visualized by TRFS-Green, Average (5hr, 5 µM): 27106; TGR inhibition visualized by TRFS-Green, single replicate (5hr, 5 µM): 27097 and 27115; TGR inhibition visualized by TRFS-Green, Average (5hr, 15 µM): 23897.5; TGR inhibition visualized by TRFS-Green, single replicate (5hr, 15 µM): 23926 and 23869; TGR inhibition visualized by TRFS-Green, Average (5hr, 30 µM): 21898.5; TGR inhibition visualized by TRFS-Green, single replicate (5hr, 30 µM): 21774 and 22023; TGR inhibition visualized by TRFS-Green, Average (24hr, 5 µM): 29485; TGR inhibition visualized by TRFS-Green, single replicate (24hr, 5 µM): 29989 and 28981; TGR inhibition visualized by TRFS-Green, Average (24hr, 15 µM): 27619.5; TGR inhibition visualized by TRFS-Green, single replicate (24hr, 15 µM): 27128 and 28111; TGR inhibition visualized by TRFS-Green, Average (24hr, 30 µM): 25005.5; TGR inhibition visualized by TRFS-Green, single replicate (24hr, 30 µM): 25040 and 24971
